Key:
[1] = test system: red fluorescent protein labeled MiaPaCa-2 cells; experiment: Orthotopic pancreatic cancer model, chemotherapy with or without ultrasound; format: in vivo, Mice; details: no ultrasound treatment
Protocol: Orthotopic pancreatic cancer was inoculated surgically in the pancreatic tail. Mice received a single sub-capsular injection of 1×10^6 red fluorescent protein labeled MiaPaCa-2 cells suspended in 0.125 mL serum free media (DMEM). All procedures were done utilizing a 12× Universal S3B microscope.
Following the primary surgery, high resolution (3456 pixels×2304 pixels) whole body digital images (EOS Digital Rebel, Canon USA, Lake Success, N.Y.) of each mouse were obtained once a week to monitor primary tumor growth and presence of metastases. The red fluorescent protein was visualized with an Illumatool Bright Light System that consisted of a 563 nm excitation filter and a 587 nm emission filter (Model LT-9900, LightTools Research, Encinitas, Calif.). Animals were imaged under nose-cone induced isoflurane general anesthesia. Primary tumor area was quantified using public domain software ImageJ (National Institutes of Health http://rsb.info.nih.gov/ij/).
Animals were randomly assigned to six groups, six animals each: (1) negative control (injection of PBS); (2) GEM at 140 mg/kg (positive control 1); (3) GEN at 20 mg/kg as PTX (positive control 2); (4) GEM+GEN combination treatment; (5) GEN+ultrasound; (6) GEM+nbGEN+ultrasound. […] Nominal ultrasound intensity was 3.4 W/cm^2, which corresponded to a measured MI=0.59. […]

[2] = test system: MDA MB231 breast cancer cell suspension; experiment: Ultrasound-induced DOX transfer from bubble walls into cells (fluorescence); format: cell-based; details: 0.75 mg/ml Dox/0.5% PEG-PLLA/2% PFP formulation; 3-MHz ultrasound, 2 W/cm^2, 20% duty cycle, 30-s exposure
Excerpt: (B) Fluorescence image of the MDA MB231 cell (thick arrow) and bubble (thin arrow) aggregates formed in the capillary during a 150-s sonication (corresponding to a 30-s ultrasound exposure time) by 3-MHz ultrasound at a 2 W/cm^2 nominal power density with a 20% duty cycle, with the focus on the bubbles. Ultrasound was applied directly to the slide through the Aquasonic coupling gel. (C) Fluorescence image of another cell aggregate of the same sample, with focus on the cells.
The elucidation of this problem would allow designing optimal ultrasound protocols. Previous data was re-evaluated. These experiments were performed by sonicating a nanodroplet/cell mixture placed in a plastic capillary (internal diameter 340 μm) of a snake mixer slide.

| SMILES | Ascitis in ultrasound images [1] | Cell fluorescence after sonication (DOX transfer into cells) [2] |
| --- | --- | --- |
| Nc1ccn([C@@H]2O[C@H](CO)[C@@H](O)C2(F)F)c(=O)n1 [GEM, gemcitabine] | clearly visible | – |
| COc1cccc2c1C(=O)c1c(O)c3c(c(O)c1C2=O)C[C@@](O)(C(=O)CO)C[C@@H]3O[C@H]1C[C@H](N)[C@H](O)[C@H](C)O1 [DOX, doxorubicin] | – | acquired strong fluorescence |

— patent publication US20100178305A1, “ULTRASONIC NANOTHERAPY OF SOLID TUMORS WITH BLOCK COPOLYMERS STABILIZED PERFLUOROCARBON NANODROPLETS” (UNIVERSITY OF UTAH RESEARCH FOUNDATION, priority 2008, published 2010)
